Test results: patent US10060189B2, “Hexadecene synthetic drilling fluid with improved environmental properties” (priority 2014, dated 2018)

How the values were obtained:
[1] = 275-day anaerobic biodegradation test (modified ISO 11734)
Source text: The term “biodegradation rate” as used herein for drilling fluids and drill cuttings is in connection with the method for performing the 275-day anaerobic biodegradation test and is defined in Federal Register, Part IV Environmental Protection Agency, 40 CFR Parts 9 and […] entitled “Effluent Limitations Guidelines and New Source Performance Standards for the Oil and Gas Extraction Point Source Category”, Fed. Reg. Vol. 66, No. 14, Jan. 22, 2001, Appendix 4 to Subpart A of Part 435, incorporated herein by reference. The 275-day anaerobic biodegradation test described in Appendix 4 to Subpart A of Part 435 is based on a modification of ISO Standard No. 11734:1995 (also incorporated herein by reference) for use in a marine environment.

Pour point (ASTM D97) = type: physicochemical
Source text: The phrase “pour point” refers to the lowest temperature at which a fluid will pour or flow. (See, e.g., ASTM International Standard Test Method D97). The results are reported in degrees Celsius. Many commercial base oils have specifications for pour point. When base oils have low pour points, the base oils are also likely to have other good low temperature properties, such as low cloud point, and low cold flow viscosity.

Flash point = type: physicochemical
[2] = Kinematic viscosity (ASTM D445-06); type: physicochemical
Method: The phrase “kinematic viscosity” refers to a measurement of the resistance to the flow of a fluid. Many base oils, drilling fluid compositions made from them, and the correct operation of equipment depends upon the appropriate viscosity of the fluid being used. Kinematic viscosity is determined by ASTM D445-06. The results are reported in mm^2/s or centistoke. The term “centistoke,” abbreviated “cSt,” is a unit for kinematic viscosity of a fluid (e.g., a drilling fluid), wherein 1 centistoke equals 1 millimeter squared per second (1 cSt=1 mm^2/s). It is also the ratio of the dynamic viscosity of a fluid to the fluid density. See, e.g., ASTM Standard Guide and Test Methods D 2270-04, D 445-06, D 6074, and D 2983.

Density = type: physicochemical
Leptocheirus plumulosus = assay: 10-day sediment toxicity test (EPA Method 1644); type: in vivo
Source text: The term “sediment toxicity” as used herein for drilling fluids and drill cuttings refers to EPA Method 1644: “Method for Conducting a Sediment Toxicity Test with Leptocheirus plumulosus and Non-Aqueous Drilling Fluids or Synthetic-Based Drilling Muds” and sediment preparation procedures specified in EPA Method 1646. EPA Method 1644 is published in “Analytic Methods for the Oil and Gas Extraction Point Source Category.” The 10-day Leptocheirus plumulosus toxicity test characterizing the sediment toxicity according to BAT (“Best Available Technology Economically Achievable) effluent limitations and NSPS (“New Source Performance Standards”) means the concentration (milligrams/kilogram dry sediment) of the base fluid in sediment that is lethal to 50 percent of the Leptocheirus plumulosus test organisms exposed to that concentration of the base fluids after ten days of constant exposure. The test is defined in ASTM Standard No. E1367-03 (2008) which is incorporated herein by reference.

C=CCCCCCCCCCCCCCC [1-hexadecene]
275 Day Anaerobic Biodegradation % Compliance Ratio (Ref Fluid/Test Fluid) ([1]; 275 day, ratio reference fluid/test fluid, <1 passes): 0.8
EPA requirement in the 275 day anaerobic biodegradation test ([1]; versus C1618 IO standard): consistently passes
Pour Point (Pour point (ASTM D97); Table 2 and text): 4 °C
Pour Point (Pour point (ASTM D97); Table 2 and text, listed as 1-hexadecene): +4 °C
Pour Point (Pour point (ASTM D97); Table 3, blends by ratio C16 unbranched isomerized olefin to 1-hexadecene): 4 deg C.
Depression in Pour Point Compared to 1-hexadecene (Pour point (ASTM D97); Table 3, compared to 1-hexadecene): 0 deg C.
Flash Point (Flash point): 125 °C
Kinematic Viscosity at 40° C. [2]: 2.4 cSt
Density (Density): 0.785 g/cc
Sediment Toxicity L. plumulosus 10 day LC50 Compliance Ratio (Ref Fluid/Test Fluid) (Leptocheirus plumulosus; 10 day, ratio reference fluid/test fluid, <1 passes): 0.35
EPA requirement in the 10-day sediment toxicity test (Leptocheirus plumulosus; in vivo): consistently passes
